Test results taken from US20090062309A1, “Therapeutic compositions for the treatment of cardiovascular diseases and methods for use therefor” (priority 2007, published 2009).
Values joined by “and” are separate entries in the source; they are usually repeats but may differ in a detail not shown here. Equal entries are not always repeated. “Also recorded” adds a separate entry of the source.

Test system: subjects with CHD having decreased RBC K+ content
Assay: Single-Blind Trial of Amiloride in Coronary Heart Disease During 2-Year Follow-Up
Type: in vivo, human
Method: Subjects were evaluated by clinical (CCS angina Class, dyspnea, and arrhythmia). Other non CHD causes of chest pain, dyspnea, and arrhythmia had been ruled out. Safety control were serial ECG, non-invasive hemodynamics (DynaPulse 200A, CA, USA), Ion Transport Study (plasma and RBC electrolytes, 12-hour urine volume and electrolyte excretion, and plasma and urine creatinine and osmolality), BIA for Body Composition Analysis and estimation of Total Body K^+ (Quantum X, RJL Systems), and Clinical Biochemistry (FPG, Lipids, Uric acid), were measured at 1, 3, 6, 12, 18, 24 months follow-up period.
After written consent, each patient entered this single-blind trial directed to reverse or improve angina and other symptoms of CHD, as well as the ECG alterations of ischemia, and if possible in long-term assay, on improved LV motion/contractility in the echocardiography studies.
All cases had: a) Serial ECG for LVH by Cornell or Sokolow-Lyon Criteria (QRS duration times Cornell voltage: [R aVL+ SV3, with 6 mm added in women, >2440 mm×ms], Sokolow-Lyon voltage: [SV1+RV5/V6]> 38 mm; along with LV strain pattern [classical ST-segment depressed, with inverted T-waves], or LVH voltage criteria with mild LV strain pattern (isoelectric, biphasic or non-symmetrical negative T-waves, without ST-segment depression), and ECG criteria for infarction and/or ischemia (Q-waves from previous AMI, decreased R-wave height, non-progressive R-wave voltages in precordial leads, ST-segment elevation […] often referred as injury current, ST-segment depression […] often downsloping from the J point, rectification of the ST segment, and isoelectric, biphasic, negative or inverted T-waves, intraventricular conduction disturbance, and arrhythmias); b) Non-invasive hemodynamic study (DP200M) for cardiac parameters (LV Ejection Time [LVET], LV dP/dT (LV delta pressure-time), Cardiac output and index (CO, Cl), Stroke Volume (SV), Pulse Wave Analysis (PWA) of Central Aortic Blood Pressure [BP], Aortic Systolic (SBP), Diastolic (DBP) and mean (m) BP, Aortic augmentation index; inflection point and reflected wave analysis, Systemic Vascular Resistance and Compliance (SVR/SVC), and Brachial Artery Distensibility (BAD), Brachial Artery Compliance (BAC); c) Ion Transport Studies for RBC (K^+, Na^+) plasma (K^+, Na^+, Cl^−, ICa^2+, Mg^2+), and 12-hours night urinary volume (K^+, Na^+, Cl^−, pH), d) Bio-Impedance Analysis (BIA, Quantum X, RJL Systems, MI, USA) for Total body Potassium, Total body water/Extracellular Water, Fat Mass (FM) and Fat-Free Mass (FFM) and e) Echocardiography was obtained at entry, 6 and 12, 24 months periods.
The statistical analysis was performed using the Student's t-test and analysis of variance. To reduce the probability of significant differences arising by chance, Bonferroni's correction was applied following analysis of variance. All measurement are presented as the mean±S.D., and differences were considered significant when p<0.05.

With `Cl.NC(N)=NC(=O)c1nc(Cl)c(N)nc1N.O.O` [Amiloride, 3,5-diamino-6-chloro-N-(diaminomethylene) pyrazinecarboxamide monohydrochloride, dihydrate] as the compound, how does the “Days for Improvement, Percentage (%)” value (2-year trial, n=52) read?
The value was 86.5%.

What about the “EGG Alterations: Improved Changes, Number” value (2-year trial, n=52) of the same compound?
Its value is 23.

What about the “EGG Alterations: Improved Changes, Percentage (%)” value (2-year trial, n=52) of the same compound?
Its value is 44.2%.

What about the “EGG Alterations: Reverted to Normal, Number” value (2-year trial, n=52) of the same compound?
Its value is 18.

And the “EGG Alterations: Reverted to Normal, Percentage (%)” value (2-year trial, n=52)?
Its value is 34.5%.

And the “EGG Alterations: Unchanged/Worst, Number” value (2-year trial, n=52)?
Its value is 10.

And the “EGG Alterations: Unchanged/Worst, Percentage (%)” value (2-year trial, n=52)?
Its value is 19.2%.

And the “EGG Alterations: Weeks for Improvement” value (2-year trial, n=52)?
Its value is 3.4 ± 1.5 Weeks.

What about the “EGG Alterations: Weeks for Improvement, Percentage (%)” value (2-year trial, n=52) of the same compound?
The value was 61%.

What about the “Echocardiographic Changes: Altered Hypokinesia, Number” value (2-year trial, n=52) of the same compound?
The value was 34.

And the “Echocardiographic Changes: Altered Hypokinesia, Percentage (%)” value (2-year trial, n=52)?
The value was 65.5%.

What about the “Echocardiographic Changes: Normal Contractility, Number” value (2-year trial, n=52) of the same compound?
Its value is 18.

And the “Echocardiographic Changes: Normal Contractility, Percentage (%)” value (2-year trial, n=52)?
The value was 34.5%.

And the “Echocardiographic Changes: Reversed Hypokinesia, Number” value (2-year trial, n=52)?
The value was 27.

And the “Echocardiographic Changes: Reversed Hypokinesia, Percentage (%)” value (2-year trial, n=52)?
Its value is 52%.

And the “Echocardiographic Changes: Unchanged Hypokinesia, Number” value (2-year trial, n=52)?
The value was 7.

What about the “Echocardiographic Changes: Unchanged Hypokinesia, Percentage (%)” value (2-year trial, n=52) of the same compound?
The value was 13.5%.

What about the “Free of Angina (1-2 years), Number” value (2-year trial, n=52) of the same compound?
The value was 37.

What about the “Free of Angina (1-2 years), Percentage (%)” value (2-year trial, n=52) of the same compound?
Its value is 71.2%.

What about the “New CVD Events: ACS, Number” value (2-year trial, n=52) of the same compound?
The value was 7.

And the “New CVD Events: ACS, Percentage (%)” value (2-year trial, n=52)?
Its value is 13.5%.

What about the “New CVD Events: AMI/Stroke/Death, Number” value (2-year trial, n=52) of the same compound?
Its value is 0.

And the “New CVD Events: AMI/Stroke/Death, Percentage (%)” value (2-year trial, n=52)?
Its value is 0%.

And the “New CVD Events: None, Number” value (2-year trial, n=52)?
Its value is 41.

What about the “New CVD Events: None, Percentage (%)” value (2-year trial, n=52) of the same compound?
Its value is 79%.

What about the “New CVD Events: Ventricular Arrhythmias, Number” value (2-year trial, n=52) of the same compound?
The value was 5.

And the “New CVD Events: Ventricular Arrhythmias, Percentage (%)” value (2-year trial, n=52)?
The value was 9.6%.

What about the “Reversion of Angina, Number” value (2-year trial, n=52) of the same compound?
Its value is 43.

What about the “Reversion of Angina, Percentage (%)” value (2-year trial, n=52) of the same compound?
Its value is 82.7%.

What about the “Subjects with Angina: Days for Improvement” value (2-year trial, n=52, Amiloride 5 to 10 mg/day) of the same compound?
The value was 6.2 ± 3.5 days.

What about the “ECG change, single subject FIG. 14A” value (Diabetic, inferior AMI, during admission in the Amiloride trial) of the same compound?
Its value is “improvement in the subject's antero-lateral ischemia”.

What about the “ECG after withdrawal, single subject FIG. 14B” value (Diabetic, two months after withdrawal of Amiloride treatment) of the same compound?
Its value is “ECG alterations marked with arrows indicative of acute coronary syndrome and ventricular arrhythmias”.

What about the “ECG change, single subject FIG. 12B” value (Person, 1-year post infarction, 5 months Amiloride, calcium and statins) of the same compound?
The value was “significant ECG improvement of ST-segment, and T-waves (V1-V6)”.

What about the “ECG, single subject FIG. 12C” value (Person, 18 months post AMI, Amiloride, calcium and statins, no other medication) of the same compound?
Its value is “essentially a normal ECG trace”.

What about the “Duke Treadmill Scores, single subject FIG. 12C” value (Person, 18 months post AMI, Amiloride, calcium and statins, monohydrochloride, dihydrate) of the same compound?
Its value is 6.23 and 5.49.

What about the “ECG change, single subject FIG. 13B” value (Person, diabetes, angina, 5-months of Amiloride and statins) of the same compound?
Its value is “improvement of ischemic changes”.

What about the “DT Score, single subject FIG. 13B” value (Person, 5-months of Amiloride and statins, score −3 before) of the same compound?
The value was 2.3.

What about the “ECG after withdrawal, single subject FIG. 13C” value (Person, after 6-months without Amiloride, optimal angina and diabetes medications) of the same compound?
Its value is “recurrence of ECG alterations”.

What about the “ECG after re-start, single subject FIG. 13C” value (Person, three months after Amiloride was reinitiated) of the same compound?
Its value is “normal without ischemic changes”.

What about the “ECG change, single subject FIG. 11C” value (person, infarction, angina, heart failure, 2-months Amiloride (5 mg) and calcium plus other medications) of the same compound?
Its value is “rapid reversion of ST-T alterations (V2-V6)”.

What about the “angina and heart failure symptoms, single subject FIG. 11C” value (person, 2-months Amiloride (5 mg) and calcium, monohydrochloride, dihydrate) of the same compound?
Its value is “free of angina or symptoms of heart failure; also recorded: free of angina and symptoms of heart failure”.

And the “Duke Treadmill Score, single subject FIG. 11C” value (person, 2-months Amiloride (5 mg) and calcium, score −3 before entering trial)?
Its value is “+4.3”.
